Measurements taken from patent US12012412B2, “Solid forms of pyrazolo[3,4-d]pyrimidine compounds” (Pfizer Inc., priority 2021, dated 2024).
In brackets after ≈: the same amount, converted by molar mass.

Experiments:
Type in all cases: physicochemical
[1] = Water sorption (dynamic vapor sorption) of Solid Form A; conditions: 25° C.
Description: Solid Form A is non-hygroscopic, absorbing less than 0.05% water at 90% RH, 25° C. See FIG. 7 for the isotherm plot.

[2] = Chemical and physical stability of Solid Form A (real-time and accelerated storage); conditions: for Time through which chemically and physically stable: unmilled, bulk packaging
[3] = Organic solubility: gravimetric (TGA) solubility at 25° C.
[4] = True density of Solid Form A
[5] = Gravimetric analysis (TGA/EGA) of Solid Form A; conditions: heated at 10° C./minute
Description: 10.9587 mg of Solid Form A was placed in a platinum crucible. This was analysed on a TA Instruments Discovery ThermoGravimetric Analyser, using a method that heated the sample from 25° C. to 300° C. at 10° C./minute with a nitrogen purge gas; alternatively, approximately 5-10 mg of material was weighed into an open aluminum pan and loaded into a simultaneous thermogravimetric/differential thermal analyzer (TG/DTA) and held at room temperature. The sample was then heated at a rate of 10° C./min from 20° C. to 400° C. during which time the change in sample weight was recorded along with any differential thermal events (DTA). Nitrogen was used as the purge gas, at a flow rate of 300 cm^3/min.

[6] = Aqueous solubility of Solid Form A in biologically relevant pH conditions at 25° C.; conditions: thermodynamic from solid
[7] = Solubility of Solid Form A and amorphous Compound X in various solvents at room temperature
[8] = Particle size of batches of Solid Form A
From the text: Primary particles from below 100 μm to around 500 μm in size, with soft agglomerates up to several millimeters, were observed. The D[4,3] of this material was 195 μm. This material was subsequently milled, to give far fewer large particles and an overall much smaller average primary particle size, giving a D[4,3] of 49.5 μm. See Table 8 for a comparison of particle size properties of various batches.

[9] = Physical stability of Solid Form A to milling
Description: Samples of Solid Form A were milled to reduce particle size.
Milled samples of Solid Form A were remilled, and exposed at 40° C./75% RH.

[10] = milled samples remilled, exposed at 40° C./75% RH

## C[C@@H]1CN(Cc2ncccn2)C[C@H]1c1nc2c(cnn2C2CCOCC2)c(=O)[nH]1 [Solid Form A, 6-((3S,4S)-4-methyl-1-(pyrimidin-2-ylmethyl)pyrrolidin-3-yl)-1-(tetrahydro-2H-pyran-4-yl)-1,5-dihydro-4H-pyrazolo[3,4-d]pyrimidin-4-one]
[1]; 0 % RH
  Water Content, Desorption: 0 % w/w
  Water Content, Sorption: 0 % w/w
[1]; 10 % RH
  Water Content, Desorption: 0.01 % w/w
  Water Content, Sorption: 0.01 % w/w
[1]; 20 % RH
  Water Content, Desorption: 0.01 % w/w
  Water Content, Sorption: 0.01 % w/w
[1]
  Hygroscopicity: non-hygroscopic
[1]; 30 % RH
  Water Content, Desorption: 0.01 % w/w
  Water Content, Sorption: 0.01 % w/w
[1]; 40 % RH
  Water Content, Desorption: 0.02 % w/w
  Water Content, Sorption: 0.02 % w/w
[1]; 50 % RH
  Water Content, Desorption: 0.02 % w/w
  Water Content, Sorption: 0.02 % w/w
[1]; 60 % RH
  Water Content, Desorption: 0.02 % w/w
  Water Content, Sorption: 0.02 % w/w
[1]; 70 % RH
  Water Content, Desorption: 0.03 % w/w
  Water Content, Sorption: 0.03 % w/w
[1]; 80 % RH
  Water Content, Desorption: 0.03 % w/w
  Water Content, Sorption: 0.03 % w/w
[1]; 90% RH
  Water absorbed: less than 0.05%
[2]; milled, 70° C./75% RH, 1 week
  Stability on storage: no change in stability
[2]; 40° C./75% RH accelerated conditions
  Time through which chemically and physically stable: ≥ 6 months
[2]; room temperature conditions (63 months @ 15-30° C. and 21 months at 25° C./60% RH)
  Time through which chemically and physically stable: ≥ 84 months
[3]; Acetone
  solubility: 125 mmol
[3]; EtOAc
  solubility: 113 mmol
[3]; EtOH
  solubility: 160 mmol
[3]; H2O
  solubility: 89 mmol
[3]; Heptane
  solubility: 1 mmol
[3]; IPA
  solubility: 74 mmol
[3]; MTBE
  solubility: 17 mmol
[3]; MeCN
  solubility: 121 mmol
[3]; Toluene
  solubility: 132 mmol
[3]; ethanol (EtOH), organic solvent or mixture, thermodynamic from solid, EtOH, read-out: Solubility
  solubility: 63.4 mg/mL (≈ 160 mM)
[3]; ethyl acetate (EtOAc), organic solvent or mixture, thermodynamic from solid, EtOAc, read-out: Solubility
  solubility: 44.7 mg/mL (≈ 113 mM)
[3]; organic solvent or mixture, thermodynamic from solid, Acetone, read-out: Solubility
  solubility: 49.4 mg/mL (≈ 125 mM)
[3]; organic solvent or mixture, thermodynamic from solid, Heptane, read-out: Solubility
  solubility: 0.6 mg/mL (≈ 1.52 mM)
[3]; organic solvent or mixture, thermodynamic from solid, IPA, read-out: Solubility
  solubility: 29.2 mg/mL (≈ 73.8 mM)
[3]; organic solvent or mixture, thermodynamic from solid, MTBE, read-out: Solubility
  solubility: 6.7 mg/mL (≈ 16.9 mM)
[3]; organic solvent or mixture, thermodynamic from solid, MeCN, read-out: Solubility
  solubility: 47.8 mg/mL (≈ 121 mM)
[3]; organic solvent or mixture, thermodynamic from solid, Toluene, read-out: Solubility
  solubility: 52.2 mg/mL (≈ 132 mM)
[3]; water, thermodynamic from solid, H2O, read-out: Solubility
  solubility: 35.3 mg/mL (≈ 89.3 mM)
[4]; from crystal structure
  True Density (crystal structure): 1.279 Mg/m^3
[4]; measured
  True Density (measured): 1.29 Mg/m^3
[5]
  Temperature until which no significant degradation is seen (TGA): degradation until approximately 240 °C See FIG. 3.
[6]; aqueous buffer, 100 mM Citrate buffer, pH 4.5, 25° C.
  solubility: > 55.9 mg/mL
[6]; aqueous buffer, 100 mM Citrate buffer, pH 6.0, 25° C.
  solubility: > 52.2 mg/mL
[6]; aqueous buffer, 100 mM Phosphate buffer, pH 6.5, 25° C.
  solubility: > 53.3 mg/mL
[6]; aqueous buffer, 100 mM Succinate buffer, pH 4.0, 25° C.
  solubility: > 58.6 mg/mL
[6]; aqueous buffer, 100 mM Succinate buffer, pH 5.5, 25° C.
  solubility: > 52.8 mg/mL
[6]; aqueous buffer, Phosphate buffered saline, pH 7.0, 25° C.
  solubility: 42.1 mg/mL (≈ 106 mM)
[6]; aqueous buffer, Phosphate buffered saline, pH 7.4, 25° C.
  solubility: 27.6 mg/mL (≈ 69.8 mM)
[6]; simulated gastric fluid, 0.01M HCl, pH 1.7, 25° C.
  solubility: > 56.6 mg/mL
[7]; 1,2-Xylene
  Solubility (mg/ml): >65.4 mg/mL
  Solubility (mmol): >165 mmol
[7]; Acetone
  Solubility (mg/ml): 49.4 mg/mL (≈ 125 mM)
  Solubility (mmol): 125 mmol
[7]; Chloroform
  Solubility (mmol): >145 mmol
[7]; Dioxane
  Solubility (mmol): >117 mmol
[7]; EtOAc
  Solubility (mg/ml): 44.7 mg/mL (≈ 113 mM)
  Solubility (mmol): 113 mmol
[7]; EtOH
  Solubility (mmol): 160 mmol
[7]; Glyme (1,2-Dimethoxyethane)
  Solubility (mmol): >159 mmol
[7]; H2O (Water)
  Solubility (mmol): 89 mmol
[7]; H2O-EtOH (Water/EtOH)
  Solubility (mmol): >75 mmol
[7]; H2O-MeCN (Water/MeCN)
  Solubility (mg/ml): >27 mg/mL
  Solubility (mmol): >68 mmol
[7]; H2O-MeOH (Water/MeOH)
  Solubility (mmol): >87 mmol
[7]; H2O-acetone (Water/acetone)
  Solubility (mg/ml): >33.3 mg/mL
  Solubility (mmol): >84 mmol
[7]; Heptane
  Solubility (mmol): 1 mmol
[7]; IPA
  Solubility (mg/ml): 29.2 mg/mL (≈ 73.8 mM)
  Solubility (mmol): 74 mmol
[7]; MTBE
  Solubility (mmol): 17 mmol
[7]; MTBE, organic solvent or mixture
  solubility: 6.7 mg/mL (≈ 16.9 mM)
[7]; MeCN
  Solubility (mg/ml): 47.8 mg/mL (≈ 121 mM)
  Solubility (mmol): 121 mmol
[7]; MeOH
  Solubility (mmol): >181 mmol
[7]; Methoxy ethanol
  Solubility (mmol): >188 mmol
[7]; Nitromethane
  Solubility (mmol): >189 mmol
[7]; THF
  Solubility (mmol): >147 mmol
[7]; THF, organic solvent or mixture
  solubility: > 58 mg/mL
[7]; Toluene
  Solubility (mg/ml): 52.2 mg/mL (≈ 132 mM)
  Solubility (mmol): 132 mmol
[7]; chloroform, organic solvent or mixture
  solubility: > 57.5 mg/mL
[7]; dioxane, organic solvent or mixture
  solubility: > 46.3 mg/mL
[7]; ethanol (EtOH), organic solvent or mixture, EtOH
  solubility: 63.4 mg/mL (≈ 160 mM)
[7]; glyme (1,2-dimethoxyethane), organic solvent or mixture
  solubility: > 63 mg/mL
[7]; heptane, organic solvent or mixture
  solubility: 0.6 mg/mL (≈ 1.52 mM)
[7]; methanol (MeOH), organic solvent or mixture, MeOH
  solubility: > 71.4 mg/mL
[7]; methoxy ethanol, organic solvent or mixture
  solubility: > 74.5 mg/mL
[7]; nitromethane, organic solvent or mixture
  solubility: > 74.9 mg/mL
[7]; water, H2O (Water)
  solubility: 35.3 mg/mL (≈ 89.3 mM)
[7]; water/EtOH, aqueous with cosolvent or surfactant or cyclodextrin, H2O-EtOH (Water/EtOH)
  solubility: > 29.8 mg/mL
[7]; water/MeOH, aqueous with cosolvent or surfactant or cyclodextrin, H2O-MeOH (Water/MeOH)
  solubility: > 34.2 mg/mL
[8]; after milling
  Particle size D[4, 3]: 49.5 μm
[8]; unmilled material
  Particle size D[4, 3]: 195 μm
[9]; [10]
  Change in crystallinity (XRPD): no sign of a decrease in crystallinity
  Form change (XRPD): no sign of form change
[9]; milled to reduce particle size
  Impact of milling upon polymorphic form: No impact upon polymorphic form
